Assay results reported in PubChem BioAssay AID1963963 (Molecular Pharmacology Branch, DTP, NCI, 2024).

Test system: 958667-338-R-J2-PDC tumor spheroids viability
Assay: Anticancer human tumor 958667-338-R-J2-PDC patient-derived colon adenocarcinoma cell line growth inhibition [PI3K]
Settings: spheroids with HUVEC and MSC; for IC50: curve of first compound; for viability, T/C: stronger effect = lower value
Description: Combinatorial screen of targeted agents with the PI3K inhibitors inavolisib, alpelisib, duvelisib, and copanlisib in multi-cell type tumor spheroids
A high-throughput screen of multi-cell type tumor spheroids was designed to identify active combinations of targeted small molecules and PI3K pathway inhibitors. Complex spheroids include a stromal component modeled by human endothelial cells (HUVEC) and fibroblasts modeled by human mesenchymal stem cells (MSCs). The concentration ranges selected for each drug and investigational agent were based upon clinically achievable concentrations if the clinical Cmax of the agent was known.
Compounds. The drugs and investigational agents: inavolisib (NSC800729), alpelisib (NSC765974), duvelisib (NSC772469), copanlisib (NSC816437), ipatasertib (NSC767898), afuresertib (NSC778305), talazoparib (NSC767125), sapanisertib (NSC764658), selumetinib (NSC741078), tovorafenib (DAY101, NSC766906), vemurafenib (NSC761431), ravoxertinib (NSC781343), sotorasib (NSC818433), MRTX1133 (NSC 836407), abemaciclib (NSC 768073), palbociclib (NSC758247), venetoclax (NSC 766270), SY5609 (NSC837396), enzalutamide (NSC755605), and darolutamide (NSC825331), were obtained from the National Cancer Institute (NCI) Developmental Therapeutics Program Chemical Repository. The FDA-approved anticancer drug set is available from the NCI Developmental Therapeutics Program. […] The stock solutions were prepared in dimethyl sulfoxide (DMSO, Sigma-Aldrich, St. Louis, MO, cat. D2650) at 800-fold the tested concentration and stored at -70 degrees C prior to their use. All drugs and investigational agents were tested over a range starting from a high concentration at or near the clinical Cmax and decreasing in half-log increments. If the clinical Cmax for an agent had not been determined, the highest concentration tested was 10 microM.
Cell Culture. All cells were maintained in an incubator at 37 degrees C and 5% CO2 with 95% humidity. The PDC lines were cultured according to standard operating procedures established by the NCI PDMR (https://pdmr.cancer.gov/sops/default.htm). All PDCs were thawed and cultured in Matrigel-coated flasks prepared with a working solution of 1X Ham's F-12 nutrient mix, without supplementation (Invitrogen, Waltham, MA, cat. 11765054), 100 U/mL penicillin-streptomycin (Invitrogen, cat. 15140122), and 2.5% Matrigel (Corning Inc., Corning, NY, cat. 354248) for the first three passages. The 354836-022-R-J1-PDC, 475296-252-R-J1-PDC, and 997726-040-R-J2-PDC lines were cultured in 6A media, which includes advanced DMEM/F-12 (Thermo Fisher Scientific, cat. 12634028), 10 mM HEPES (Thermo Fisher Scientific, cat. 15630080), 1X GlutaMAX supplement (Thermo Fisher Scientific, cat. 35050061), 0.1 mg/mL primocin (InvivoGen, San Diego, CA, cat. ant-pm-2), 10% defined fetal bovine serum, heat inactivated (HyClone Laboratories Inc., Logan, UT, cat. SH30070.03HI), 50% L-WRN conditioned media (ATCC, cat. CRL-3276), 1.25 mM N-Acetyl-L-cysteine (Sigma-Aldrich, cat. A9165), 10 mM nicotinamide (Sigma-Aldrich, cat. N0636), 1X B-27 supplement (Thermo Fisher Scientific, cat. 17504044), 1X N-2 supplement (Thermo Fisher Scientific, cat. 17502048), and 10 microM Y-27632 dihydrochloride (Tocris Bioscience, Bristol, United Kingdom, cat. 1254). The 624824-186-R-J2-PDC line was cultured in 6C/Colon 1B media, which includes all 6A media components plus 50 ng/mL human EGF recombinant protein (Thermo Fisher Scientific, cat. PHG0311). […]

[1] = second compound 0.00316 µM, first compound 0.0316 µM
[2] = second compound 0.00316 µM, first compound 0.1 µM
[3] = second compound 0.00316 µM, first compound 0.316 µM
[4] = second compound 0.00316 µM, first compound 1 µM
[5] = second compound 0.00316 µM, first compound 3.16 µM
[6] = second compound 0.00316 µM, first compound 10 µM
[7] = second compound 0.01 µM, first compound 0.0316 µM
[8] = second compound 0.01 µM, first compound 0.1 µM
[9] = second compound 0.01 µM, first compound 0.316 µM
[10] = second compound 0.01 µM, first compound 1 µM
[11] = second compound 0.01 µM, first compound 3.16 µM
[12] = second compound 0.01 µM, first compound 10 µM
[13] = second compound 0.0316 µM, first compound 0.0316 µM
[14] = second compound 0.0316 µM, first compound 0.1 µM
[15] = second compound 0.0316 µM, first compound 0.316 µM
[16] = second compound 0.0316 µM, first compound 1 µM
[17] = second compound 0.0316 µM, first compound 3.16 µM
[18] = second compound 0.0316 µM, first compound 10 µM
[19] = second compound 0.1 µM, first compound 0.0316 µM
[20] = second compound 0.1 µM, first compound 0.1 µM
[21] = second compound 0.1 µM, first compound 0.316 µM
[22] = second compound 0.1 µM, first compound 1 µM
[23] = second compound 0.1 µM, first compound 3.16 µM
[24] = second compound 0.1 µM, first compound 10 µM
[25] = second compound 0.316 µM, first compound 0.0316 µM
[26] = second compound 0.316 µM, first compound 0.1 µM
[27] = second compound 0.316 µM, first compound 0.316 µM
[28] = second compound 0.316 µM, first compound 1 µM
[29] = second compound 0.316 µM, first compound 3.16 µM
[30] = second compound 0.316 µM, first compound 10 µM
[31] = second compound 1 µM, first compound 0.0316 µM
[32] = second compound 1 µM, first compound 0.1 µM
[33] = second compound 1 µM, first compound 0.316 µM
[34] = second compound 1 µM, first compound 1 µM
[35] = second compound 1 µM, first compound 3.16 µM
[36] = second compound 1 µM, first compound 10 µM
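Further: spheroids exposed to compounds for seven days before readout.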

Q: For `CC1(C)CCC(CN2CCN(c3ccc(C(=O)NS(=O)(=O)c4ccc(NCC5CCOCC5)c([N+](=O)[O-])c4)c(Oc4cnc5[nH]ccc5c4)c3)CC2)=C(c2ccc(Cl)cc2)C1` + CC(Nc1ccc2c(c1)OCCn1cc(N3C(=O)OCC3C(F)F)nc1-2)C(N)=O, which IC50 (second compound 0.00316 µM) is on record?
A: > 10 µM

Q: And the IC50 (second compound 0.01 µM)?
A: 9.01 µM

Q: What about the IC50 (second compound 0.0316 µM) of the same compound?
A: 7.32 µM

Q: And the IC50 (second compound 0.1 µM)?
A: 6.41 µM

Q: And the IC50 (second compound 0.316 µM)?
A: 4.7 µM

Q: And the IC50 (second compound 1 µM)?
A: > 10 µM

Q: What about the viability, T/C [1] of the same compound?
A: 92.8%

Q: And the viability, T/C [2]?
A: 116%

Q: What about the viability, T/C [3] of the same compound?
A: 95.6%

Q: What about the viability, T/C [4] of the same compound?
A: 111%

Q: And the viability, T/C [5]?
A: 102%

Q: What about the viability, T/C [6] of the same compound?
A: 69.5%

Q: And the viability, T/C [7]?
A: 91.6%

Q: What about the viability, T/C [8] of the same compound?
A: 89.3%

Q: What about the viability, T/C [9] of the same compound?
A: 91.2%

Q: What about the viability, T/C [10] of the same compound?
A: 87.3%

Q: What about the viability, T/C [11] of the same compound?
A: 86.3%

Q: What about the viability, T/C [12] of the same compound?
A: 46.4%

Q: And the viability, T/C [13]?
A: 84.2%

Q: What about the viability, T/C [14] of the same compound?
A: 118%

Q: And the viability, T/C [15]?
A: 86%

Q: What about the viability, T/C [16] of the same compound?
A: 97.9%

Q: And the viability, T/C [17]?
A: 86.9%

Q: What about the viability, T/C [18] of the same compound?
A: 36.1%

Q: What about the viability, T/C [19] of the same compound?
A: 72%

Q: What about the viability, T/C [20] of the same compound?
A: 79.7%

Q: And the viability, T/C [21]?
A: 74.3%

Q: What about the viability, T/C [22] of the same compound?
A: 77.4%

Q: What about the viability, T/C [23] of the same compound?
A: 96.6%

Q: And the viability, T/C [24]?
A: 31%

Q: What about the viability, T/C [25] of the same compound?
A: 71.7%

Q: And the viability, T/C [26]?
A: 59.5%

Q: What about the viability, T/C [27] of the same compound?
A: 67.5%

Q: And the viability, T/C [28]?
A: 71.8%

Q: And the viability, T/C [29]?
A: 70.1%

Q: What about the viability, T/C [30] of the same compound?
A: 15.5%

Q: And the viability, T/C [31]?
A: 49%

Q: What about the viability, T/C [32] of the same compound?
A: 60.7%

Q: And the viability, T/C [33]?
A: 63%

Q: What about the viability, T/C [34] of the same compound?
A: 63.4%

Q: And the viability, T/C [35]?
A: 60.7%

Q: What about the viability, T/C [36] of the same compound?
A: 35.5%

Q: What does the source list for `C[C@@H](NC(=O)c1ncnc(N)c1Cl)c1ncc(C(=O)Nc2cc(C(F)(F)F)c(Cl)cn2)s1` + CC(Nc1ccc2c(c1)OCCn1cc(N3C(=O)OCC3C(F)F)nc1-2)C(N)=O?
A: IC50 (second compound 0.00316 µM): > 10 µM; IC50 (second compound 0.01 µM): > 10 µM; IC50 (second compound 0.0316 µM): > 10 µM; IC50 (second compound 0.1 µM): > 10 µM; IC50 (second compound 0.316 µM): > 10 µM; IC50 (second compound 1 µM): > 10 µM; viability, T/C [1]: 112%; viability, T/C [2]: 116%; viability, T/C [3]: 87.5%; viability, T/C [4]: 120%; viability, T/C [5]: 115%; viability, T/C [6]: 103%; viability, T/C [7]: 118%; viability, T/C [8]: 131%; viability, T/C [9]: 113%; viability, T/C [10]: 111%; viability, T/C [11]: 101%; viability, T/C [12]: 102%; viability, T/C [13]: 90.4%; viability, T/C [14]: 97%; viability, T/C [15]: 92%; viability, T/C [16]: 96.1%; viability, T/C [17]: 101%; viability, T/C [18]: 108%; viability, T/C [19]: 88.5%; viability, T/C [20]: 97.4%; viability, T/C [21]: 93.9%; viability, T/C [22]: 94.2%; viability, T/C [23]: 90.1%; viability, T/C [24]: 76.2%; viability, T/C [25]: 67.7%; viability, T/C [26]: 72.4%; viability, T/C [27]: 95.1%; viability, T/C [28]: 80.8%; viability, T/C [29]: 77.8%; viability, T/C [30]: 80%; viability, T/C [31]: 61.2%; viability, T/C [32]: 59.8%; viability, T/C [33]: 59.3%; viability, T/C [34]: 64.3%; viability, T/C [35]: 75.5%; viability, T/C [36]: 58.9%
